How the values were obtained:
giant foxtail = test: Test B pre/postemergence giant foxtail; assay type: in vivo, Setaria faberii; details: for Giant foxtail plant response rating: scale of 0 to 10 where 0 is no effect and 10 is complete control
How it was run: (§1)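 Test chemicals in a non-phytotoxic solvent mixture with surfactant were sprayed preemergence onto planted seeds and postemergence onto plants 2 to 18 cm tall (1- to 4-leaf stage). After twelve to sixteen days in a greenhouse, injury was visually rated against untreated controls from 0 (no effect) to 10 (complete control).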

wild oat = test: Test B pre/postemergence wild oat; assay type: in vivo, Avena fatua; details: for Wild oats plant response rating: scale of 0 to 10 where 0 is no effect and 10 is complete control
How it was run: as §1

sugar beet = test: Test B pre/postemergence sugar beet; assay type: in vivo, Beta vulgaris; details: for Sugarbeets plant response rating: scale of 0 to 10 where 0 is no effect and 10 is complete control
How it was run: as §1

rice = test: Test B flood test rice; assay type: in vivo, Oryza sativa
How it was run: (§2)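 Each value is a visual injury score relative to controls, with 10 meaning complete control and 0 no effect. Evaluation took place twelve to sixteen days after the 2-leaf-stage plants were treated and kept in the greenhouse.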

corn = test: Test B pre/postemergence corn; assay type: in vivo, Zea mays; details: for Corn plant response rating: scale of 0 to 10 where 0 is no effect and 10 is complete control
How it was run: as §1

purple nutsedge = test: Test B pre/postemergence purple nutsedge; assay type: in vivo, Cyperus rotundus; details: for Nutsedge plant response rating: scale of 0 to 10 where 0 is no effect and 10 is complete control
How it was run: as §1

surinam grass = test: Test B pre/postemergence surinam grass; assay type: in vivo, Brachiaria decumbens; details: for B. signalgrass plant response rating: scale of 0 to 10 where 0 is no effect and 10 is complete control
How it was run: as §1

bamyardgrass = test: Test B flood test barnyardgrass; assay type: in vivo, Echinochloa crus-galli
How it was run: as §2

rape = test: Test B pre/postemergence rape; assay type: in vivo, Brassica napus; details: for Rape plant response rating: scale of 0 to 10 where 0 is no effect and 10 is complete control
How it was run: as §1

pigweed = test: Test B pre/postemergence pigweed; assay type: in vivo, Amaranthus retroflexus; details: for Redroot pigweed plant response rating: scale of 0 to 10 where 0 is no effect and 10 is complete control
How it was run: as §1

morningglory = test: Test B pre/postemergence morningglory; assay type: in vivo, Ipomoea hederacea; details: for Morningglory plant response rating: scale of 0 to 10 where 0 is no effect and 10 is complete control
How it was run: as §1

cocklebur = test: Test B pre/postemergence cocklebur; assay type: in vivo, Xanthium strumarium; details: for Cocklebur plant response rating: scale of 0 to 10 where 0 is no effect and 10 is complete control
How it was run: as §1

smallflower flatsedge = test: Test B flood test smallflower flatsedge; assay type: in vivo, Cyperus difformis
How it was run: as §2

crabgrass = test: Test B pre/postemergence crabgrass; assay type: in vivo, Digitaria sanguinalis; details: for Crabgrass plant response rating: scale of 0 to 10 where 0 is no effect and 10 is complete control
How it was run: as §1

duck salad = test: Test B flood test duck salad; assay type: in vivo, Heteranthera limosa
How it was run: as §2

wheat = test: Test B pre/postemergence wheat; assay type: in vivo, Triticum aestivum; details: for Wheat plant response rating: scale of 0 to 10 where 0 is no effect and 10 is complete control
How it was run: as §1

[1] = Postemergence, Rate 125 g/ha, scale 0 to 10, 0 is no effect, 10 is complete control
[2] = Postemergence, Rate 250 g/ha, scale 0 to 10, 0 is no effect, 10 is complete control
[3] = Preemergence, Rate 62 g/ha, scale 0 to 10 (0 no effect, 10 complete control)
[4] = Rate 500 g/ha, Postemergence, scale 0 to 10, 0 no effect, 10 complete control
[5] = Rate 62 g/ha, flood test species, Pre-emergence, visual evaluation after twelve to sixteen days
[6] = Rate 125 g/ha, under heading Pre-emergence, flood test species, visual evaluation after twelve to sixteen days
[7] = Rate 250 g/ha, Pre-emergence, flood-test species, scale 0 to 10, 0 is no effect, 10 is complete control
[8] = Rate 500 g/ha, Pre-emergence, flood test species, scale 0 to 10 (0 no effect, 10 complete control)

## Cc1nnsc1Cn1c(=O)on(C(=O)N(c2ccc(F)cc2)C(C)C)c1=O [Compound 380]
Giant foxtail; [1]
  Plant response rating, Giant foxtail: 2
Giant foxtail; [2]
  Plant response rating, Giant foxtail: 9
Giant foxtail; [3]
  Plant response rating, Giant foxtail: 2
Giant foxtail; Preemergence, Rate 125 g/ha
  Giant foxtail plant response rating (0 to 10 scale): 8
Giant foxtail; Preemergence, Rate 250 g/ha
  Giant foxtail plant response rating: 9
Giant foxtail; Preemergence, Rate 500 g/ha
  Giant foxtail plant response rating: 10
Giant foxtail; Rate 62 g/ha, Postemergence
  Giant foxtail plant response rating: 1
Giant foxtail; [4]
  Plant response rating, Giant foxtail: 9
Wild oat; [1]
  Plant response rating, Wild oats: 0
Wild oat; [2]
  Plant response rating, Wild oats: 0
Wild oat; [3]
  Plant response rating, Wild oats: 0
Wild oat; Preemergence, Rate 125 g/ha
  Wild oats plant response rating (0 to 10 scale): 0
Wild oat; Preemergence, Rate 250 g/ha
  Wild oats plant response rating: 0
Wild oat; Preemergence, Rate 500 g/ha
  Wild oats plant response rating: 4
Wild oat; Rate 62 g/ha, Postemergence
  Wild oats plant response rating: 0
Wild oat; [4]
  Plant response rating, Wild oats: 0
Sugar beet; [1]
  Plant response rating, Sugarbeets: 0
Sugar beet; [2]
  Plant response rating, Sugarbeets: 0
Sugar beet; [3]
  Plant response rating, Sugarbeets: 0
Sugar beet; Preemergence, Rate 125 g/ha
  Sugarbeets plant response rating (0 to 10 scale): 0
Sugar beet; Preemergence, Rate 250 g/ha
  Sugarbeets plant response rating: 0
Sugar beet; Preemergence, Rate 500 g/ha
  Sugarbeets plant response rating: 0
Sugar beet; Rate 62 g/ha, Postemergence
  Sugarbeets plant response rating: 0
Sugar beet; [4]
  Plant response rating, Sugarbeets: 0
rice; [5]
  Plant response rating, Rice (0 to 10 scale, 0 is no effect, 10 is complete control): 0
rice; [6]
  Rice plant response rating (0 to 10 scale, 0 is no effect, 10 is complete control): 0
rice; [7]
  Rice plant response rating: 0
rice; [8]
  Rice plant response rating: 0
corn; [1]
  Plant response rating, Corn: 0
corn; [2]
  Plant response rating, Corn: 0
corn; [3]
  Plant response rating, Corn: 0
corn; Preemergence, Rate 125 g/ha
  Corn plant response rating (0 to 10 scale): 0
corn; Preemergence, Rate 250 g/ha
  Corn plant response rating: 0
corn; Preemergence, Rate 500 g/ha
  Corn plant response rating: 0
corn; Rate 62 g/ha, Postemergence
  Corn plant response rating: 0
corn; [4]
  Plant response rating, Corn: 0
Purple nutsedge; [1]
  Plant response rating, Nutsedge: 0
Purple nutsedge; [2]
  Plant response rating, Nutsedge: 0
Purple nutsedge; [3]
  Plant response rating, Nutsedge: 0
Purple nutsedge; Preemergence, Rate 125 g/ha
  Nutsedge plant response rating (0 to 10 scale): 0
Purple nutsedge; Preemergence, Rate 250 g/ha
  Nutsedge plant response rating: 0
Purple nutsedge; Preemergence, Rate 500 g/ha
  Nutsedge plant response rating: 0
Purple nutsedge; Rate 62 g/ha, Postemergence
  Nutsedge plant response rating: 0
Purple nutsedge; [4]
  Plant response rating, Nutsedge: 0
Surinam grass; [1]
  Plant response rating, B. signalgrass: 0
Surinam grass; [2]
  Plant response rating, B. signalgrass: 0
Surinam grass; [3]
  Plant response rating, B. signalgrass: 0
Surinam grass; Preemergence, Rate 125 g/ha
  B. signalgrass plant response rating (0 to 10 scale, 0 is no effect, 10 is complete control): 0
Surinam grass; Preemergence, Rate 250 g/ha
  B. signalgrass plant response rating: 0
Surinam grass; Preemergence, Rate 500 g/ha
  B. signalgrass plant response rating: 0
Surinam grass; Rate 62 g/ha, Postemergence
  B. signalgrass plant response rating: 0
Surinam grass; [4]
  Plant response rating, B. signalgrass: 0
bamyardgrass; [5]
  Plant response rating, Barnyardgrass (0 to 10 scale, 0 is no effect, 10 is complete control): 0
bamyardgrass; [6]
  Barnyardgrass plant response rating (0 to 10 scale, 0 is no effect, 10 is complete control): 0
bamyardgrass; [7]
  Barnyardgrass plant response rating: 0
bamyardgrass; [8]
  Barnyardgrass plant response rating: 0
rape; [1]
  Plant response rating, Rape: 0
rape; [2]
  Plant response rating, Rape: 0
rape; [3]
  Plant response rating, Rape: 0
rape; Preemergence, Rate 125 g/ha
  Rape plant response rating (0 to 10 scale): 0
rape; Preemergence, Rate 250 g/ha
  Rape plant response rating: 0
rape; Preemergence, Rate 500 g/ha
  Rape plant response rating: 0
rape; Rate 62 g/ha, Postemergence
  Rape plant response rating: 0
rape; [4]
  Plant response rating, Rape: 0
pigweed; [1]
  Plant response rating, Redroot pigweed: 0
pigweed; [2]
  Plant response rating, Redroot pigweed: 0
pigweed; [3]
  Plant response rating, Redroot pigweed: 0
pigweed; Preemergence, Rate 125 g/ha
  Redroot pigweed plant response rating (0 to 10 scale): 3
pigweed; Preemergence, Rate 250 g/ha
  Redroot pigweed plant response rating: 3
pigweed; Preemergence, Rate 500 g/ha
  Redroot pigweed plant response rating: 6
pigweed; Rate 62 g/ha, Postemergence
  Redroot pigweed plant response rating: 0
pigweed; [4]
  Plant response rating, Redroot pigweed: 5
morningglory; [1]
  Plant response rating, Morningglory: 5
morningglory; [2]
  Plant response rating, Morningglory: 5
morningglory; [3]
  Plant response rating, Morningglory: 0
morningglory; Preemergence, Rate 125 g/ha
  Morningglory plant response rating (0 to 10 scale): 0
morningglory; Preemergence, Rate 250 g/ha
  Morningglory plant response rating: 0
morningglory; Preemergence, Rate 500 g/ha
  Morningglory plant response rating: 0
morningglory; Rate 62 g/ha, Postemergence
  Morningglory plant response rating: 5
morningglory; [4]
  Plant response rating, Morningglory: 10
cocklebur; [1]
  Plant response rating, Cocklebur: 0
cocklebur; [2]
  Plant response rating, Cocklebur: 0
cocklebur; [3]
  Plant response rating, Cocklebur: 0
cocklebur; Preemergence, Rate 125 g/ha
  Cocklebur plant response rating (0 to 10 scale): 0
cocklebur; Preemergence, Rate 250 g/ha
  Cocklebur plant response rating: 0
cocklebur; Rate 62 g/ha, Postemergence
  Cocklebur plant response rating: 0
cocklebur; [4]
  Plant response rating, Cocklebur: 6
Smallflower flatsedge; [5]
  Plant response rating, S. Flatsedge (0 to 10 scale, 0 is no effect, 10 is complete control): 0
Smallflower flatsedge; [6]
  S. Flatsedge plant response rating (0 to 10 scale, 0 is no effect, 10 is complete control): 0
Smallflower flatsedge; [7]
  S. Flatsedge plant response rating: 0
Smallflower flatsedge; [8]
  S. Flatsedge plant response rating: 0
crabgrass; [1]
  Plant response rating, Crabgrass: 1
crabgrass; [2]
  Plant response rating, Crabgrass: 2
crabgrass; [3]
  Plant response rating, Crabgrass: 1
crabgrass; Preemergence, Rate 125 g/ha
  Crabgrass plant response rating (0 to 10 scale): 7
crabgrass; Preemergence, Rate 250 g/ha
  Crabgrass plant response rating: 7
crabgrass; Preemergence, Rate 500 g/ha
  Crabgrass plant response rating: 9
crabgrass; Rate 62 g/ha, Postemergence
  Crabgrass plant response rating: 0
crabgrass; [4]
  Plant response rating, Crabgrass: 7
Duck salad; [5]
  Plant response rating, Ducksalad (0 to 10 scale, 0 is no effect, 10 is complete control): 0
Duck salad; [6]
  Ducksalad plant response rating (0 to 10 scale, 0 is no effect, 10 is complete control): 0
Duck salad; [7]
  Ducksalad plant response rating: 0
Duck salad; [8]
  Ducksalad plant response rating: 0
wheat; [1]
  Plant response rating, Wheat: 0
wheat; [2]
  Plant response rating, Wheat: 0
wheat; [3]
  Plant response rating, Wheat: 0
wheat; Preemergence, Rate 125 g/ha
  Wheat plant response rating (0 to 10 scale): 0
wheat; Preemergence, Rate 250 g/ha
  Wheat plant response rating: 0
wheat; Preemergence, Rate 500 g/ha
  Wheat plant response rating: 0
wheat; Rate 62 g/ha, Postemergence
  Wheat plant response rating: 0
wheat; [4]
  Plant response rating, Wheat: 0

Reference: patent US6737383B1, “Herbicidal oxadiazolidines” (priority 1999, dated 2004)
